The structures appear in SMILES notation.

Broadly, the IC50 is the concentration that gives 50% inhibition.

Common to all, as to assay: Inhibition of ALDH isoenzymes (NAD(P)H formation at 340 nm, purified recombinant enzyme)
Holding throughout (type): biochemical

One assay addresses T1, ALDH1A2 (Homo sapiens, UniProt O94788).
T1 sequence (O94788 1-518): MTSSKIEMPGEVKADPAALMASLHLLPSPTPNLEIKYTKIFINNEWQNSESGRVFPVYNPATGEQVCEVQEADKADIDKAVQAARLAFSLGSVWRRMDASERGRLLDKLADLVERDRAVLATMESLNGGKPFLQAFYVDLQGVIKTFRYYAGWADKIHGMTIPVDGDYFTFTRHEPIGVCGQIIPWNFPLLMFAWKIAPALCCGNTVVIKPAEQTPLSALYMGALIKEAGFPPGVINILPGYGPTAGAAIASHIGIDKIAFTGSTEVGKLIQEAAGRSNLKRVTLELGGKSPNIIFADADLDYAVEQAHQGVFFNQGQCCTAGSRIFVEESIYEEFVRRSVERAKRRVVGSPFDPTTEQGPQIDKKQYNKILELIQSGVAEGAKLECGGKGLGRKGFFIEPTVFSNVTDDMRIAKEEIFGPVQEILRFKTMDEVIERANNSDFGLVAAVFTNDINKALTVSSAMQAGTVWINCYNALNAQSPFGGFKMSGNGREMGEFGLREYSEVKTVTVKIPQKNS
Conditions: for remaining activity at 20 µM: compound at 20 μM, read-out: ALDH1A2 % Control at 20 μM.

For another assay, the target named is T2, ALDH1A1 (Homo sapiens, UniProt P00352).
T2 sequence (P00352 1-501): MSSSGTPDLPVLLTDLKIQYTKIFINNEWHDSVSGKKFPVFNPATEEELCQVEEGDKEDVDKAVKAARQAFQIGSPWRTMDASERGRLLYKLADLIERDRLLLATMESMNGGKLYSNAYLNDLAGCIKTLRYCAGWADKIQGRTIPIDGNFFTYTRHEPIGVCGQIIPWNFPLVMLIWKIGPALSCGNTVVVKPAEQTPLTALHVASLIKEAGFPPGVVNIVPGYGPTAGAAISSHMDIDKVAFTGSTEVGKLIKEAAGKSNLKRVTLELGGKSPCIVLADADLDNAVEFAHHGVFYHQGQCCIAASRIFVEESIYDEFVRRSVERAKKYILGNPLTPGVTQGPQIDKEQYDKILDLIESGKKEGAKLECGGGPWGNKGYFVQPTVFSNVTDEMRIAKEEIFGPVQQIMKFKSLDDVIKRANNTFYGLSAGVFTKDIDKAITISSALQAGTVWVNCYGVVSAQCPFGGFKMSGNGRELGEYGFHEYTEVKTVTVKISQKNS
Conditions: for remaining activity at 20 µM: compound at 20 μM, read-out: ALDH1A1 % Control at 20 μM; for IC50: 100-200 nM enzyme, 200 μM NAD+, 100 μM propionaldehyde, pH 7.5, 25° C.

The next assay addresses T3, ALDH2 (Homo sapiens, UniProt P05091).
T3 sequence (P05091 18-517): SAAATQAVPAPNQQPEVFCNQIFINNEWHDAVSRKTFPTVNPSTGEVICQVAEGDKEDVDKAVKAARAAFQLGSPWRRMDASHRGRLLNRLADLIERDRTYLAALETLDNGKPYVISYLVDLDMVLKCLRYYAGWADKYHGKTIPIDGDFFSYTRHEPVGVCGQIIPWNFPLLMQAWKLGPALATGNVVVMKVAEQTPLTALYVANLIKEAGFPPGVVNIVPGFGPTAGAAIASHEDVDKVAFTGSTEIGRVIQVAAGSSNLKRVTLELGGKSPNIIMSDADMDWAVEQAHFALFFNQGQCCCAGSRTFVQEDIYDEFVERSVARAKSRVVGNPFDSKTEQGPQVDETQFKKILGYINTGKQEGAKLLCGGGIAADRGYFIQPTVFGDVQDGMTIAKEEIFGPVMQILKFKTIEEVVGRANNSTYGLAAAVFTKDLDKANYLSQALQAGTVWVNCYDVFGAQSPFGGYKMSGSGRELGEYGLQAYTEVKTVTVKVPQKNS
Conditions: compound at 20 μM; read-out: ALDH2 % Control at 20 μM.

A further assay concerns the target T4, ALDH1A3 (Homo sapiens, UniProt P47895).
T4 sequence (P47895 1-512): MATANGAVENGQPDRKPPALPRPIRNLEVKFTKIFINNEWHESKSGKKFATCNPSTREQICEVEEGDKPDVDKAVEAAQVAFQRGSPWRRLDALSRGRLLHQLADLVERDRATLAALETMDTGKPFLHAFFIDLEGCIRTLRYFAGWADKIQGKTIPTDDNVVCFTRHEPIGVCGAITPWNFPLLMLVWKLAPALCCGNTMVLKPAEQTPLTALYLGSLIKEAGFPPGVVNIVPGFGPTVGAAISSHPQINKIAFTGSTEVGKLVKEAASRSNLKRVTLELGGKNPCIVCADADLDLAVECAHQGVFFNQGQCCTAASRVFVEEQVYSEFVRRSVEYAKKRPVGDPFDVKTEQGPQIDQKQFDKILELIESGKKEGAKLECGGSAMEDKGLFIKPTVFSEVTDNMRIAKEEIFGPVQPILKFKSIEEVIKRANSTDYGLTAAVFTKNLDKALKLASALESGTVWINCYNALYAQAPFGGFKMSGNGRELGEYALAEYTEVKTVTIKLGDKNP
Conditions: for remaining activity at 20 µM: compound at 20 μM, read-out: ALDH1A3 % Control at 20 μM.

Where [1] appears, read: 100-200 nM enzyme, 200 μM NAD+, 100 μM propionaldehyde, pH 7.5, 25° C.
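For ALDH2 % Control at 20 μM in this document: run at 25 °C, started by adding substrate after 2 min preincubation, with 100-200 nM ALDH2, 200 µM NAD+, 100 µM propionaldehyde, 1% DMSO in BES buffer pH 7.5.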

Turning to `Cn1ncc2c(=O)n(C3CCC3)c(SCc3cccc(F)c3)nc21` [Example 46, 5-cyclobutyl-6-((3-fluorobenzyl)thio)-1-methyl-1H-pyrazolo[3,4-d]pyrimidin-4(5H)-one], the remaining activity at 20 µM on ALDH1A2 worked out at 14%; at ALDH1A1, 28%; at ALDH2, 96%; at ALDH1A3 it was 73%.
As to `Cc1ccccc1-n1c(OCc2cccc(F)c2)nc2c(cnn2C)c1=O` [Example 24, 6-((3-fluorobenzyl)oxy)-1-methyl-5-(o-tolyl)-1H-pyrazolo[3,4-d]pyrimidin-4(5H)-one], the figures for the remaining activity at 20 µM on ALDH1A2, at ALDH2 and at ALDH1A3 were 72%, 95% and 66%, respectively. Moreover, the IC50 on ALDH1A1 is 1200 nM.
In the case of `CC(Sc1nc2c(cnn2C)c(=O)n1-c1ccccc1)c1cccc(F)c1` (stereo not shown) [Example 71, 6-((1-(3-fluorophenyl)ethyl)thio)-1-methyl-5-phenyl-1H-pyrazolo[3,4-d]pyrimidin-4(5H)-one], the remaining activity at 20 µM on ALDH1A2 was -8%; at ALDH1A1, -4%; on ALDH2 it was 94%; at ALDH1A3, -10%.
The like results for `Cn1ncc2c(=O)n(-c3ccccc3)c(SC(C)(C)c3ccccc3)nc21` [Example 77, 1-methyl-5-phenyl-6-((2-phenylpropan-2-yl)thio)-1H-pyrazolo[3,4-d]pyrimidin-4(5H)-one] were, in that order, 23%, 22%, 102% and 17%.
As to `CC(Sc1nc2c(cnn2C)c(=O)n1-c1ccccc1)c1ccccn1` (stereo not shown) [Example 79, 1-methyl-5-phenyl-6-((1-(pyridin-2-yl)ethyl)thio)-1H-pyrazolo[3,4-d]pyrimidin-4(5H)-one], the remaining activity at 20 µM on ALDH1A2 amounted to 1%; on ALDH1A1, 9%; on ALDH2 it was 92%.
In the same order, the values of `CC(Sc1nc2c(cnn2C)c(=O)n1-c1ccccc1)c1cccnc1` (stereo not shown) [Example 80, 1-methyl-5-phenyl-6-((1-(pyridin-3-yl)ethyl)thio)-1H-pyrazolo[3,4-d]pyrimidin-4(5H)-one] are 7%, 6% and 96%.
Turning to `Cn1ncc2c(=O)n(-c3ccccc3)c(SC3CCCCC3=O)nc21` (stereo not shown) [Example 76, 1-methyl-6-((2-oxocyclohexyl)thio)-5-phenyl-1H-pyrazolo[3,4-d]pyrimidin-4(5H)-one], the remaining activity at 20 µM on ALDH1A2 amounted to 25%; on ALDH1A1 it was 16%; at ALDH2 it was 94%; at ALDH1A3, 14%.
As to `CC(Sc1nc2c(cnn2C)c(=O)n1-c1ccccc1)c1cccc(O)c1` (stereo not shown) [Example 78, 6-((1-(3-hydroxyphenyl)ethyl)thio)-1-methyl-5-phenyl-1H-pyrazolo[3,4-d]pyrimidin-4(5H)-one], the remaining activity at 20 µM was 0% at ALDH1A2, 4% on ALDH1A1 and 91% at ALDH2.
On to `Cc1ccccc1-n1c(SCc2cccc(F)c2)nc2n[nH]c(C)c2c1=O` [Example 39, 6-((3-fluorobenzyl)thio)-3-methyl-5-(o-tolyl)-2H-pyrazolo[3,4-d]pyrimidin-4(5H)-one], for which the figures for the remaining activity at 20 µM on ALDH1A2, at ALDH2 and on ALDH1A3 were 93%, 95% and 79%, respectively. On ALDH1A1, the IC50 is 1200 nM.
For the molecule `Cn1ncc2c(=O)n(-c3ccccc3)c(CNCc3cccc(F)c3)nc21` [Example 26, 6-(((3-fluorobenzyl)amino)methyl)-1-methyl-5-phenyl-1H-pyrazolo[3,4-d]pyrimidin-4(5H)-one], the remaining activity at 20 µM at ALDH1A2 was 77%; on ALDH1A1, 28%; at ALDH2, 98%; on ALDH1A3 it was 74%.
On to `Cn1ncc2c(=O)n(-c3ccccc3)c(CCc3cccc(F)c3)nc21` [Example 48, 6-(3-fluorophenethyl)-1-methyl-5-phenyl-1H-pyrazolo[3,4-d]pyrimidin-4(5H)-one], for which the remaining activity at 20 µM at ALDH1A1 worked out at 24%; at ALDH2 it was 98%; on ALDH1A3 it was 26%.
For `Cn1ncc2c(=O)n(-c3ccccc3)c(SC3CCCCC3)nc21` [Example 72, 6-(cyclohexylthio)-1-methyl-5-phenyl-1H-pyrazolo[3,4-d]pyrimidin-4(5H)-one], the remaining activity at 20 µM was 34% on ALDH1A2, 26% at ALDH1A1, 96% on ALDH2 and 24% on ALDH1A3.
In the same order, the values of `Cn1ncc2c(=O)n(C3CCCCC3)c(SCc3cccc(F)c3)nc21` [Example 44, 5-cyclohexyl-6-((3-fluorobenzyl)thio)-1-methyl-1H-pyrazolo[3,4-d]pyrimidin-4(5H)-one] are 36%, 37%, 177% and 43%.
In the same order, the values of `Cn1ncc2c(=O)n(C3CCCC3)c(SCc3cccc(F)c3)nc21` [Example 45, 5-cyclopentyl-6-((3-fluorobenzyl)thio)-1-methyl-1H-pyrazolo[3,4-d]pyrimidin-4(5H)-one] are 37%, 46%, 117% and 95%.
For the molecule `Cc1ccccc1-n1c(SCc2cccc(F)c2)nc2[nH]ncc2c1=O` [Example 1, 6-((3-fluorobenzyl)thio)-5-(o-tolyl)-1H-pyrazolo[3,4-d]pyrimidin-4(5H)-one], the IC50 at ALDH1A2 (setting [1]) is 4700 nM; on ALDH1A3 (setting [1]), greater than 20000 nM.
As for `O=c1c2cnn(C3COC3)c2nc(SCc2cccc(F)c2)n1-c1ccccc1` [Example 18, 6-((3-fluorobenzyl)thio)-1-(oxetan-3-yl)-5-phenyl-H-pyrazolo[3,4-d]pyrimidin-4(5H)-one], the results for the remaining activity at 20 µM at ALDH1A2, at ALDH1A1 and at ALDH1A3 were 7%, 2% and 9%, respectively.
As to `Cn1ncc2c(=O)n(-c3ccccc3F)c(SCc3cccc(F)c3)nc21` [Example 56, 6-((3-fluorobenzyl)thio)-5-(2-fluorophenyl)-1-methyl-1H-pyrazolo[3,4-d]pyrimidin-4(5H)-one], at ALDH1A3, the remaining activity at 20 µM was determined as 9%.

These data come from patent US11944626B2, “Small molecule inhibitors of ALDH and uses thereof” (The Regents of the University of Michigan, priority 2016, dated 2024).
